The target in assay [1] is T1, stromelysin-1 catalytic domain (SCD) (Homo sapiens, UniProt P08254). Briefly: Isothermal titration calorimetry of ligand binding.
Assay [2] deals with T1, stromelysin-1 catalytic domain (SCD). The following applies: in Tris–HCl, not corrected for proton transfer; cited from earlier work.

SMILES strings stand for the structures.

T1 sequence (P08254 100-272 limits assumed, species assumed): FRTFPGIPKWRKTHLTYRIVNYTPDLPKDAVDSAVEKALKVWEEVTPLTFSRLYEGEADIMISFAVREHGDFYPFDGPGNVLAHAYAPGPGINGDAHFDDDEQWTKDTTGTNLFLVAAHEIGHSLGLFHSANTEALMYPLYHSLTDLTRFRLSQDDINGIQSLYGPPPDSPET

Turning to `CC(=O)NO` [Compound 8, acetohydroxamic acid], the “ΔG^0” value in assay [1] (ITC, pH 7.5, 3% DMSO) is -2.4 ± 0.3 kcal/mol. In assay [1] (ITC, pH 7.5, 3% DMSO, corrected for proton transfer), the ΔHbind0 was -2.3 ± 0.2 kcal/mol. Further, in assay [1] (from titrations at 15, 25 and 37 °C, by regression), the ΔCP is listed as −67 ± 24 cal mol^−1 K^−1.

For the compound `Oc1ccccc1` [phenol], the ΔHobs in assay [2] is -4.7 kcal/mol.

The values are drawn from PMC3763901 (Bioorganic & medicinal chemistry letters, 2012).
